The values that follow come from paper PMC12811997 (Chemmedchem, 2025).

The structures appear in SMILES notation. Converted amounts (≈) assume the structure as drawn. Counter-ions that a name gives are not always drawn. Like-named read-outs stand apart in the source and are kept apart here. Some results are limits rather than exact numbers.

A short description of one series: in vitro. Conditions: human.
For the next series, the system named is SARS‐CoV‐2. The experiment in a line: microbe, parasite or virus in culture. In kind it is cell-based.
Series [1] has as its target SARS‐CoV‐2 RdRp complex (nsp12, nsp7, nsp8) (Severe acute respiratory syndrome coronavirus 2, UniProt P0DTD1). The experiment in a line: biochemical. In kind it is biochemical. Conditions: for remaining activity at 10 µM: read-out: RA ± SD (residual activity of RdRp), at 10 μM concentration of screened compounds, AUC with compound / AUC of noninhibited reaction.
The next series in a line: Kinetic solubility. Conditions: for kinetic solubility: as restated in Conclusions.
Where [2] appears, read: Severe acute respiratory syndrome coronavirus 2, Calu‐3 cells infected with SARS‐CoV‐2, concentration required to reduce viral cytopathic effect by 50%, read-out: EC50.

Procedure for in vitro: Cytotoxicity was evaluated by incubating the same two‐fold serial dilutions of each compound with Calu‐3 cells as above but without the virus. Following 3 days of incubation at 37 °C in 5% CO2, the cell viability was determined by the addition of XTT solution as above. The compound cytotoxic concentrations resulting in a 50% reduction of absorbance (CC50) were calculated from plots of the percentage of absorbance versus log10 of drug concentration as above.

In the case of `Cl.NC(=O)C1CN(Cc2ccc(NC(=O)Nc3cc(Cl)cc(Cl)c3)cc2C(F)(F)F)CCO1` (stereo not shown) [Compound 72, 4‐(4‐(3‐(3,5‐Dichlorophenyl)Ureido)‐2‐(Trifluoromethyl)Benzyl)Morpholine‐2‐Carboxamide Hydrochloride], the CC50 at 3 days in “in vitro” came out at 12 ± 0.51 µM. In addition, the EC50 with SARS‐CoV‐2 (setting [2]) was greater than 12 µM. The remaining activity at 10 µM in series [1] was 52 ± 5%. The kinetic solubility in the series “Kinetic solubility” (kinetic from dmso stock) was found to be 4.7 ± 0.1 µM.
As to `O=C(Nc1cccc(C(F)(F)F)c1)Nc1c(Cl)cccc1Cl` [Compound 10, 1‐(2,6‐Dichlorophenyl)‐3‐(3‐(Trifluoromethyl)Phenyl)Urea], in series [1], the remaining activity at 10 µM was 100%.
`NC(=O)c1ccc(NC(=O)Nc2cc(Cl)cc(Cl)c2)cc1C(F)(F)F` [Compound 24, 4‐(3‐(3,5‐Dichlorophenyl)Ureido)‐2‐(Trifluoromethyl)Benzamide] displayed a CC50 at 3 days in the series “in vitro” of 14 ± 1 µM. Moreover, the EC50 in the series on SARS‐CoV‐2 (setting [2]) was greater than 14 µM. Also, the remaining activity at 10 µM in series [1] is roughly 65%. Besides, in “Kinetic solubility”, the kinetic solubility amounted to 32.5 µM L^−1. This compound also registered a kinetic solubility in “Kinetic solubility” (kinetic from dmso stock) of 32.5 ± 0.8 µM (≈ 12.7 µg/mL).
As to `Cl.O=C(Nc1cc(Cl)cc(Cl)c1)Nc1ccc(CN2CCCC2)c(C(F)(F)F)c1` [Compound 38, 1‐(3,5‐Dichlorophenyl)‐3‐(4‐(Pyrrolidin‐1‐Ylmethyl)‐3‐(Trifluoromethyl)Phenyl)Urea Hydrochloride], the CC50 at 3 days in the series “in vitro” came out at 19 ± 1 µM. In addition, the 50% effective concentration (EC50) in the series on SARS‐CoV‐2 (setting [2]) is greater than 19 µM. Besides, the remaining activity at 10 µM in series [1] amounted to 46 ± 2%. Also, in “Kinetic solubility” (kinetic from dmso stock), the kinetic solubility is less than 2 µM.
With `COCCNCc1ccc(NC(=O)Nc2cc(Cl)cc(Cl)c2)cc1C(F)(F)F` [Compound 58, 1‐(3,5‐Dichlorophenyl)‐3‐(4‐(((2‐Methoxyethyl)Amino)Methyl)‐3‐(Trifluoromethyl)Phenyl)Urea Hydrochloride], the remaining activity at 10 µM in series [1] was 100%.
In the series “in vitro”, `Cl.O=C(Nc1cc(Cl)cc(Cl)c1)Nc1ccc(CN2CCS(=O)(=O)CC2)c(C(F)(F)F)c1` [Compound 68, 1‐(3,5‐Dichlorophenyl)‐3‐(4‐((1,1‐Dioxidothiomorpholino)Methyl)‐3‐(Trifluoromethyl)Phenyl)Urea Hydrochloride] returned a CC50 at 3 days of 5.9 ± 0.51 µM. Besides, in the series with SARS‐CoV‐2 (setting [2]), the EC50 is greater than 5.9 µM. In addition, in series [1], the remaining activity at 10 µM was found to be 37 ± 5%. In the series “Kinetic solubility” (kinetic from dmso stock), this compound yielded a kinetic solubility of 2.57 ± 0.04 µM.
On to `O=C(Nc1cc(Cl)cc(Cl)c1)Nc1ccc(C(F)(F)F)nn1` [Compound 17, 1‐(3,5‐Dichlorophenyl)‐3‐(6‐(Trifluoromethyl)Pyridazin‐3‐Yl)Urea], for which the remaining activity at 10 µM in series [1] is 68 ± 9%.
Compound `O=C(Nc1cc(Cl)cc(Cl)c1)Nc1ccc(CN2CCOC(C(=O)[O-])C2)c(C(F)(F)F)c1.[Li+]` (stereo not shown) [Compound 71, Lithium 4‐(4‐(3‐(3,5‐Dichlorophenyl)Ureido)‐2‐(Trifluoromethyl)Benzyl)Morpholine‐2‐Carboxylate] returned a CC50 at 3 days in “in vitro” of 32 ± 0.77 µM. The compound also yielded an EC50 with SARS‐CoV‐2 (Severe acute respiratory syndrome coronavirus 2, Calu-3) greater than 32 µM. Besides, in series [1], the remaining activity at 10 µM was roughly 65%. The compound also returned a kinetic solubility in “Kinetic solubility” of 71 µM L^−1. Also, in the series “Kinetic solubility” (kinetic from dmso stock), the solubility (kinetic) turned out to be 71 ± 1 µM.
In the case of `O=C(Nc1cc(Cl)cc(Cl)c1)Nc1cnc(C(F)(F)F)cn1` [Compound 19, 1‐(3,5‐Dichlorophenyl)‐3‐(5‐(Trifluoromethyl)Pyrazin‐2‐Yl)Urea], in series [1], the remaining activity at 10 µM was 75 ± 8%.
`Cl.O=C(Nc1cc(Cl)cc(Cl)c1)Nc1ccc(C(F)(F)F)c(CN2CCCC2)c1` [Compound 46, 1‐(3,5‐Dichlorophenyl)‐3‐(3‐(Pyrrolidin‐1‐Ylmethyl)‐4‐(Trifluoromethyl)Phenyl)Urea Hydrochloride] displayed a CC50 at 3 days in the series “in vitro” of roughly 15 µM. For the same compound, in the series on SARS‐CoV‐2 (setting [2]), the EC50 was greater than 15 µM. Besides, the remaining activity at 10 µM in series [1] was 67 ± 7%. The compound further yielded a solubility (kinetic) in the series “Kinetic solubility” (kinetic from dmso stock) of 11.9 ± 0.4 µM.
In the series “in vitro”, `Cl.O=C(Nc1cc(Cl)cc(Cl)c1)Nc1ccc(CN2CCOCC2)c(C(F)(F)F)c1` [Compound 39, 1‐(3,5‐Dichlorophenyl)‐3‐(4‐(Morpholinomethyl)‐3‐(Trifluoromethyl)Phenyl)Urea Hydrochloride] gave a CC50 at 3 days of 8.4 ± 1.1 µM. Also, in the series on SARS‐CoV‐2 (setting [2]), the EC50 is greater than 8.4 µM. The remaining activity at 10 µM in series [1] was determined as 36 ± 7%. The kinetic solubility in the series “Kinetic solubility” turned out to be 4.2 µM L^−1. The kinetic solubility in “Kinetic solubility” (kinetic from dmso stock) was 4.2 ± 0.3 µM.
On to `O=C(Nc1cnc(C(F)(F)F)nc1)Nc1cc(Cl)cc(Cl)c1` [Compound 18, 1‐(3,5‐Dichlorophenyl)‐3‐(2‐(Trifluoromethyl)Pyrimid‐5‐Yl)Urea], for which the CC50 at 3 days in the series “in vitro” was 1.1 ± 0.11 µM. In the series on SARS‐CoV‐2 (setting [2]), the EC50 is greater than 1.1 µM. Further, in series [1], the “effect in combination with remdesivir” value is “potentiates the effect of remdesivir” and the remaining activity at 10 µM stood at 42 ± 10%. The mode of inhibition entry in series [1] (versus ATP, enzymatic study) is recorded as “competitive inhibitor of ATP”. The kinetic solubility in the series “Kinetic solubility” turned out to be 27 µM/L. In addition, in “Kinetic solubility” (kinetic from dmso stock), the solubility (kinetic) amounted to 27 ± 6 µM (≈ 9.48 µg/mL).
Compound `COC(=O)CNCc1ccc(NC(=O)Nc2cc(Cl)cc(Cl)c2)cc1C(F)(F)F.Cl` [Compound 61, Methyl (4‐(3‐(3,5‐Dichlorophenyl)Ureido)‐2‐(Trifluoromethyl)Benzyl)Glycinate Hydrochloride] showed a CC50 at 3 days in the series “in vitro” of 8.4 ± 0.46 µM. In addition, the EC50 with SARS‐CoV‐2 (setting [2]) is greater than 8.4 µM. The remaining activity at 10 µM in series [1] came out at 43 ± 8%. The compound further gave a kinetic solubility in the series “Kinetic solubility” of 21 µM L^−1. In “Kinetic solubility” (kinetic from dmso stock), this compound registered a kinetic solubility of 7 ± 0.6 µM. Moreover, in the series “Kinetic solubility” (relative to compound 39), the “increase in kinetic solubility compared with compound 39” value was 1.7 fold.
As for `Cl.O=C1CN(Cc2ccc(NC(=O)Nc3cc(Cl)cc(Cl)c3)cc2C(F)(F)F)CCN1` [Compound 70, 1‐(3,5‐Dichlorophenyl)‐3‐(4‐((3‐Oxopiperazin‐1‐Yl)Methyl)‐3‐(Trifluoromethyl)Phenyl)Urea Hydrochloride], the CC50 at 3 days in the series “in vitro” was determined as 9.5 ± 0.28 µM. The EC50 in the series on SARS‐CoV‐2 (setting [2]) was greater than 9.5 µM. Further, in series [1], the remaining activity at 10 µM was 63 ± 7%. For the same compound, the kinetic solubility in the series “Kinetic solubility” (kinetic from dmso stock) worked out at 11.2 ± 0.07 µM.
On to `O=C(Nc1cc(Cl)cc(Cl)c1)Nc1ccc(CNCCO)c(C(F)(F)F)c1` [Compound 59, 1‐(3,5‐Dichlorophenyl)‐3‐(4‐(((2‐Hydroxyethyl)Amino)Methyl)‐3‐(Trifluoromethyl)Phenyl)Urea Hydrochloride], for which the remaining activity at 10 µM in series [1] stood at 76 ± 11%.
On to `NCc1ccc(NC(=O)Nc2cc(Cl)cc(Cl)c2)cc1C(F)(F)F` [Compound 41, 1‐(4‐(Aminomethyl)‐3‐(Trifluoromethyl)Phenyl)‐3‐(3,5‐Dichlorophenyl)Urea Hydrochloride], for which the remaining activity at 10 µM in series [1] turned out to be 78 ± 5%.
The compound `O=C(Nc1ccc(C(F)(F)F)cc1)Nc1cc(Cl)cc(Cl)c1` [Compound 13, 1‐(3,5‐Dichlorophenyl)‐3‐(4‐(Trifluoromethyl)Phenyl)Urea] came in with a CC50 at 3 days in the series “in vitro” of 0.29 ± 0.03 µM. For the same compound, the EC50 with SARS‐CoV‐2 (setting [2]) is greater than 0.29 µM. Also, in series [1], the remaining activity at 10 µM stood at 34 ± 14%. Besides, the solubility (kinetic) in the series “Kinetic solubility” (kinetic from dmso stock) is less than 2.1 µM.
The matching figures for `COC(=O)C1CN(Cc2ccc(NC(=O)Nc3cc(Cl)cc(Cl)c3)cc2C(F)(F)F)CCO1.Cl` (stereo not shown) [Compound 69, Methyl 4‐(4‐(3‐(3,5‐Dichlorophenyl)Ureido)‐2‐(Trifluoromethyl)Benzyl)Morpholine‐2‐Carboxylate Hydrochloride]: 34 ± 5.6 µM, greater than 34 µM, 42 ± 4% and less than 2 µM.
Consider `NC(=O)c1c(Cl)cc(Cl)cc1NC(=O)Nc1cccc(C(F)(F)F)c1` [Compound 28, 2,4‐Dichloro‐6‐(3‐(3‐(Trifluoromethyl)Phenyl)Ureido)Benzamide], for which the remaining activity at 10 µM in series [1] was found to be 100%.
For `O=C(O)CNCc1ccc(NC(=O)Nc2cc(Cl)cc(Cl)c2)cc1C(F)(F)F` [Compound 62, Lithium (4‐(3‐(3,5‐Dichlorophenyl)Ureido)‐2‐(Trifluoromethyl)Benzyl)Glycinate], the remaining activity at 10 µM in series [1] was 70 ± 10%.
The same measure, in the same setting: the result for `O=C(Nc1cc(Cl)cc(Cl)c1)Nc1ccccc1C(F)(F)F` [Compound 14, 1‐(3,5‐Dichlorophenyl)‐3‐(2‐(Trifluoromethyl)Phenyl)Urea] reads 100%.
The compound `O=C(Nc1ccc(C(F)(F)F)nc1)Nc1cc(Cl)cc(Cl)c1` [Compound 15, 1‐(3,5‐Dichlorophenyl)‐3‐(6‐(Trifluoromethyl)Pyridin‐3‐Yl)Urea] gave a CC50 at 3 days in “in vitro” of 1.3 ± 0.13 µM. For the same compound, the EC50 in the series on SARS‐CoV‐2 (setting [2]) is greater than 1.3 µM. Also, in series [1], the remaining activity at 10 µM amounted to 35 ± 9%.
For the compound `NC(=O)c1ccc(C(F)(F)F)cc1NC(=O)Nc1cc(Cl)cc(Cl)c1` [Compound 25, 2‐(3‐(3,5‐Dichlorophenyl)Ureido)‐4‐(Trifluoromethyl)Benzamide], in series [1], the remaining activity at 10 µM is 100%.
In the case of `O=C(Nc1cccc(C(F)(F)F)c1)Nc1ccc(Cl)cc1Cl` [Compound 9, 1‐(2,4‐Dichlorophenyl)‐3‐(3‐(Trifluoromethyl)Phenyl)Urea], in “in vitro”, the CC50 at 3 days is 6.9 ± 0.94 µM. Also, in the series with SARS‐CoV‐2 (setting [2]), the half-maximal effective concentration (EC50) was greater than 6.9 µM. For the same compound, the remaining activity at 10 µM in series [1] was 64 ± 12%. For the same compound, the solubility (kinetic) in the series “Kinetic solubility” is less than 2 µM.
On to `CN1CCN(Cc2c(Cl)cc(NC(=O)Nc3cccc(C(F)(F)F)c3)cc2Cl)CC1` [Compound 54, 1‐(3,5‐Dichloro‐4‐((4‐Methylpiperazin‐1‐Yl)Methyl)Phenyl)‐3‐(3‐(Trifluoromethyl)Phenyl)Urea Hydrochloride], for which, in series [1], the remaining activity at 10 µM stood at 79 ± 5%.
Still for that read-out and setting: the result for `O=C(Nc1cc(Cl)cc(Cl)c1)Nc1ccc(C(F)(F)F)cn1` [Compound 16, 1‐(3,5‐Dichlorophenyl)‐3‐(5‐(Trifluoromethyl)Pyridin‐2‐Yl)Urea] reads 100%; that for `CN1CCN(Cc2cc(NC(=O)Nc3cc(Cl)cc(Cl)c3)ccc2C(F)(F)F)CC1` [Compound 48, 1‐(3,5‐Dichlorophenyl)‐3‐(3‐((4‐Methylpiperazin‐1‐Yl)Methyl)‐4‐(Trifluoromethyl)Phenyl)Urea Hydrochloride], 100%.

What is called EC50 is the concentration at which the effect is half-maximal. By solubility (kinetic) is commonly meant the concentration staying in solution when a stock, usually in DMSO, is diluted into the medium.
